Reference: patent publication US8865672B2, “Prevention of tissue ischemia and related methods” (The United States of America, as represented by the …, priority 2006, dated 2014)

System: myosin light chain-2 (MLC) in HAVSMC
Test: Myosin light chain phosphorylation in VSMC
Assay type: cell-based, human
Conditions: S1P 100 nM, DEA/NO 10 μM, TSP1 2.2 nM
Experimental: VSMC were plated at 90% confluence and grown in smooth muscle growth media containing 2% FBS overnight. To stimulate MLC phosphorylation, sphingosine-1-phosphate (SIP; Biomol International, Plymouth, Pa.) was added at a final concentration of 100 nM. The nitric oxide donor DEA/NO was added at a final concentration of 10 μM. For TSP1 pretreatment, cells were incubated with 2.2 nM TSP1 before addition of SIP or DEA/NO. Cells were subsequently washed twice with PBS and lysed immediately in 1×SDS sample buffer containing 10 μg/mL leupeptin, 10 μg/mL aprotinin, 1 mM Na3VO4, and 40 mM NaF. Lysates prepared in the SDS sample buffer described above were electrophoresed in 4-12% BisTris NuPAGE gels and transferred to PVDF membranes prior to immunoblotting with rabbit polyclonal antibodies against myosin light chain-2 (MLC) and phospho-MLC2 (T18/S19, Cell Signaling Technology, Danvers, Mass.).

TSP1: thrombospondin-1 prepared from human platelets
MLC dephosphorylation induced by NO: partially restored MLC phosphorylation
